Seven compounds from patent US9488914B2, “Fluorine-containing sulfonic acid salt, fluorine-containing sulfonic acid salt resin, resist composition, and pattern forming method using same” (Central Glass Company, Limited, priority 2012, dated 2016) can be followed below.

The series can be described thus: Solubility of polymerizable fluorine-containing sulfonic acid onium salts in PGMEA. The settings on record: amount (g) of polymerizable monomer dissolved in 100 g of PGMEA.
As for `C=C(COCC(F)(F)S(=O)(=O)O)C(=O)OC1CC(C(O)(C(F)(F)F)C(F)(F)F)CC(C(O)(C(F)(F)F)C(F)(F)F)C1` (stereo not shown) [PAG-3, Diphenyl-p-tolylsulfonium 2-[2-(3,5-bis(hexafluoro-2-hydroxypropan-2-yl)cyclohexyloxycarbonyl)-2-methyleneethoxy]-1,1-difluoroethanesulfonate], the Solubility was determined as 55 g/100 g.
As to “Triphenylsulfonium 2-[2-(1,1,1-trifluoro-2-hydroxy-2-(trifluoromethyl)penta-5-yloxycarbonyl)-2-methyleneethoxy]-1,1-difluoroethanesulfonate [PAG-13]”, the Solubility came to 47 g/100 g.
The same measure for `C=C(COCCC(F)(F)C(F)(F)S(=O)(=O)[O-])C(=O)OC1CC2CC1CC2CC(OC(C)=O)(C(F)(F)F)C(F)(F)F.c1ccc(-[s+]2c3ccccc3c3ccccc32)cc1` (stereo not shown) [PAG-2, Phenyldibenzothiophenium 4-[2-(3,3,3-trifluoro-2-acetyloxy-2-(trifluoromethyl)propyl)bicyclo[2.2.1]hepta-2-yloxycarbonyl-2-methyleneethoxy]-1,1,2,2-tetrafluorobutanesulfonate]: 50 g/100 g; for `C=C(COCCC(F)(F)C(F)(F)S(=O)(=O)O)C(=O)Oc1ccc2sc(=O)oc2c1` [PAG-8]: 42 g/100 g.
With `C=C(COCCCC(F)(F)S(=O)(=O)O)C(=O)OC1CC2CC1C1COC(=O)C21` (stereo not shown) [PAG-15, [(4-trifluoromethyl)phenyl]diphenylsulfonium 4-(4-oxa-tricyclo[5.2.1.0(2,6)]decan-3-on-8-yloxycarbonyl-2-methylene-ethoxy)-1,1-difluorobutanesulfonate], the Solubility was 42 g/100 g.
For the compound `C=C(COCC(F)(F)S(=O)(=O)O)C(=O)OC1CCOC1=O` (stereo not shown) [PAG-1, Triphenylsulfonium 2-[2-(2-oxotetrahydrofuran-3-yloxycarbonyl)-2-methyleneethoxy]-1,1-difluoroethanesulfonate], the Solubility came out at 38 g/100 g.
Next, `C=C(COC(CCCC)C(F)(F)S(=O)(=O)[O-])C(=O)Oc1ccc(C(O)(C(F)(F)F)C(F)(F)F)cc1.Cc1ccc([S+](c2ccc(C)cc2)c2ccc(C)cc2)cc1` (stereo not shown) [PAG-11, Tri-p-tolylsulfonium 2-[4-(2,2,2-trifluoro-1-hydroxy-1-(trifluoromethyl)ethylphenoxycarbonyl)-2-methylene-ethoxy]-1,1-difluorohexanesulfonate]: 45 g/100 g.
